System: Eczemas, and Other Pruritic Disorders
Assay: Topical anti-pruritic effect in patients with pruritic disorders
Type: in vivo, human
Settings: 2 to 5%, after initial anti-pruritic effect
Excerpt: Patients with various kinds of pruritic disorders participated in this study. The cases included atopic eczema, patchy eczema, chronic eczema of the hands, lichen simplex chronicus, contact allergic eczema, pruritus of the aged, pruritus of hepatic origin, pruritus ani, pruritus vulvae, scalp pruritus and pruritus of other disorders such as mycosis fungoides, psoriasis and pityriasis rubra pilaris.
Therapeutic compositions containing phenyl-alpha-acyloxyacetamides at 2 to 5% concentrations in cream, ointment, lotion or solution were prepared according to the Examples. The medicinal compositions were topically applied by the patient in an amount sufficient to cover the itching area of skin. Applications were made one to two times daily or as frequently as necessary and without occlusive dressings.
Two parameters have been used to compare degrees of anti-pruritic effect of phenyl-alpha-acyloxyacetamides. The first parameter is whether the relief of itching is complete (2+) or incomplete (1+). The second parameter is the number of hours the patient stays free of pruritus after the initial anti-pruritic effect. […] Therefore, the overall anti-pruritic effect of a compound may range from 2+ to 4+. […] 4+ for complete relief and lasting for more than 8 hours.

| Structure (SMILES) | duration of anti-pruritic effect |
| --- | --- |
| CCC(=O)OC(C(=O)NCCc1ccccc1)(c1ccccc1)c1ccccc1 [N-phenethyl diphenyl-alpha-propionyloxyacetamide] | less than 8 hours |

Same assay, conditions: all patients tested

| Structure (SMILES) | relief of itching (in words) |
| --- | --- |
| CCC(=O)OC(C(=O)NCCc1ccccc1)(c1ccccc1)c1ccccc1 [N-phenethyl diphenyl-alpha-propionyloxyacetamide] | completely abolished itch sensations |

Same assay, conditions: first category compounds, 2 to 5%

| Structure (SMILES) | Anti-pruritic Effect |
| --- | --- |
| CC(=O)OC(C(=O)N(Cc1ccccc1)Cc1ccccc1)c1ccccc1 (stereo not drawn) [N,N-dibenzyl phenyl-alpha-acetoxyacetamide] | 3+ |
| CCN(CC)C(=O)C(OC(C)=O)c1ccccc1 (stereo not drawn) [N,N-diethyl phenyl-alpha-acetoxyacetamide] | 4+ (complete relief and lasting for more than 8 hours) |
| COc1ccc(CCNC(=O)C(OC(C)=O)c2ccccc2)cc1OC (stereo not drawn) [N-(3,4 -dimethoxyphenethyl)phenyl-alpha-acetoxyacetamide] | 4+ (complete relief and lasting for more than 8 hours) |
| CC(=O)OC(C(=O)NCc1ccccc1)c1ccccc1 (stereo not drawn) [N-benzyl phenyl-alpha-acetoxyacetamide] | 4+ (complete relief and lasting for more than 8 hours) |
| CCNC(=O)C(OC(=O)Cc1ccccc1)c1ccccc1 (stereo not drawn) [N-ethyl phenyl-alpha-phenylacetoxyacetamide] | 4+ (complete relief and lasting for more than 8 hours) |
| CC(=O)OC(C(=O)NCCSCCO)c1ccccc1 (stereo not drawn) [N-hydroxyethylthioethylphenyl-alpha-acetoxyacetamide] | 3+ |
| CC(=O)OC(C(=O)NC(C)C)c1ccccc1 (stereo not drawn) [N-isopropyl phenyl-alpha-acetoxyacetamide] | 3+ |
| CNC(=O)C(OC(C)=O)c1ccccc1 (stereo not drawn) [N-methyl phenyl alpha-acetoxyacetamide] | 3+ |
| CC(=O)OC(C(=O)NCc1ccc(Cl)cc1)c1ccccc1 (stereo not drawn) [N-p-chlorobenzyl phenyl-alpha-acetoxyacetamide] | 4+ (complete relief and lasting for more than 8 hours) |
| COc1ccc(CNC(=O)C(OC(C)=O)c2ccccc2)cc1 (stereo not drawn) [N-p-methoxybenzyl phenyl-alpha-acetoxyacetamide] | 4+ (complete relief and lasting for more than 8 hours) |
| COc1ccc(CCNC(=O)C(OC(C)=O)c2ccccc2)cc1 (stereo not drawn) [N-p-methoxyphenethyl phenyl-alpha-acetoxyacetamide] | 4+ (complete relief and lasting for more than 8 hours) |
| CCC(=O)OC(C(=O)NCCc1ccccc1)c1ccccc1 (stereo not drawn) [N-phenethyl phenyl-alpha-propionyloxyacetamide] | 3+ |
| CC(=O)OC(C(=O)NC(C)(C)C)c1ccccc1 (stereo not drawn) [N-t-butyl phenyl-alpha-acetoxyacetamide] | 4+ (complete relief and lasting for more than 8 hours) |

Same assay, conditions: intermediate and related compounds

| Structure (SMILES) | Anti-pruritic Effect |
| --- | --- |
| CC(=O)OC(C(=O)NCc1cccnc1)c1ccccc1 (stereo not drawn) [N-3'-picolyl phenyl-alpha-acetoxyacetamide] | 3+ |
| CCN(CC)CCNC(=O)C(OC(C)=O)c1ccccc1 (stereo not drawn) [N-(N',N'-diethylaminoethyl)phenyl-alpha-acetoxyacetamide] | 3+ |
| CC(=O)OC(C(=O)OC(C(=O)NCCc1ccccc1)c1ccccc1)c1ccccc1 (stereo not drawn) [N-phenethyl phenyl-alpha-(o-acetylmandeloyloxy)acetamide] | 3+ |
| O=C(NCCc1ccccc1)C(O)c1ccccc1 (stereo not drawn) [N-phenethyl phenyl-alpha-hydroxyacetamide] | 3+ |

System: itch provoked by papain or histamine dihydrochloride
Assay: Anti-pruritic effect on normal human skin (papain or histamine induced itch)
Type: in vivo
Settings: 2 to 5% topical, normal human adult volunteers
Protocol: Itch provoking pruritic compositions were prepared as follows: papain 0.5% solution was prepared by dissolving papain 50 mg in 10 ml of saline, and histamine 0.2% solution was prepared by dissolving histamine dihydrochloride 20 mg in 10 ml of saline. Itching was provoked or induced as follows: a pruritic composition in a volume of 0.05 ml containing papain or histamine dihydrochloride as a pruritic agent was topically applied on the flexor forearm of normal human adult volunteers and the skin site was gently pricked rapidly through the solution with a 26-gauge needle to the level of the papillary dermis as described by Bernstein et al. (J. E. Bernstein, R. M. Swift, K. Soltani and A. L. Lorincz: Antipruritic Effect of an Opiate Antagonist, Naloxone Hydrochloride in Journal of Investigative Dermatology 78, 82-83, 1982). This technique provoked or induced itch sensation at the test skin site within a few minutes following the topical application of the pruritic composition. After itch sensation had been induced a composition containing 2 to 5% N-ethyl phenyl-alpha-acetoxyacetamide, N-phenethyl phenyl-alpha-acetoxyacetamide or other phenyl-alpha-acyloxyacetamide derivatives of the instant invention was topically applied on the pruritic skin site. The vehicle alone cream containing no active ingredient was used as a control.

| Structure (SMILES) | Anti-pruritic Effect |
| --- | --- |
| CC(=O)OC(C(=O)NCCc1ccccc1)(c1ccccc1)c1ccccc1 [N-phenethyl diphenyl-alpha-acetoxyacetamide] | substantial anti-pruritic effect |

System: calming or sedative effects
Assay: Tranquilizing effect, oral administration in dogs
Type: in vivo
Settings: not given
Protocol: Hairless mice, white hairy mice and dogs were used in these studies.
Three dogs weighing between 10 to 20 kg were given orally N-phenethyl phenyl-alpha-acetoxyacetamide or N-ethyl phenyl-alpha-acetoxyacetamide in gelating capsules at doses of 5 to 10 mg per kg.

| Structure (SMILES) | soporific or drowsy effects |
| --- | --- |
| CN(C)CCOC(c1ccccc1)c1ccccc1 [Benadryl] | soporific and drowsy effects |
| CN1C(=O)CN=C(c2ccccc2)c2cc(Cl)ccc21 [Valium] | soporific and drowsy effects |

Same assay, conditions: test compounds 5 to 10 mg per kg

| Structure (SMILES) | tranquilizing / sedative effect |
| --- | --- |
| CN(C)CCOC(c1ccccc1)c1ccccc1 [Benadryl] | substantial sedative effects |
| CN1C(=O)CN=C(c2ccccc2)c2cc(Cl)ccc21 [Valium] | substantial sedative effects |
